Reference: patent US11066711B2, “Biomarkers for predicting Clostridium difficile infection treatment outcome” (Mayo Foundation for Medical Education and Research, priority 2015, dated 2021)

Tested on: Clostridium difficile infection
Assay: Primary CDI treatment outcome in patients with a first CDI episode (clinical cohort)
Assay type: in vivo, human
Conditions: 88 patients with first CDI episode; metronidazole versus vancomycin (Table 1)
Source text: Patients with a first Clostridium difficile infection (CDI) episode were recruited. Consecutive patient stool samples that led to CDI diagnosis were collected.
Clinical data including demographics, hospitalization, concomitant medications, severity, laboratory parameters, prior and concomitant antibiotic use, initial CDI treatment, treatment response and recurrent CDI were obtained by a review of the electronic medical record.
Treatment failure was defined as non-response to treatment after 5 days of metronidazole treatment or 4 days of vancomycin therapy (Khanna et al., 2012 Am J Gastroenterol 107:89-95; Cohen et al., 2010 Infect Control Hosp Epidemiol 31:431-55; and Surawicz et al., 2013 Am J Gastroenterol 108:478-98). Recurrent CDI was defined as recurrence of diarrhea after complete resolution of symptoms at any time during the treatment or within 56 days of onset with a positive CDI test (Cohen et al., 2010 Infect Control Hosp Epidemiol 31:431-55).
Stool samples were collected from 88 patients (median age 52.7 years, interquartile range 36.9-65.1; 60.2% female) and clinical outcomes were recorded prospectively. The rate of primary non-response following recommended treatment was 12.5%, and was similar between metronidazole and vancomycin (Table 1).

SMILES | rate of primary non-response, comparison between drugs
Cc1ncc([N+](=O)[O-])n1CCO [metronidazole] | similar
CN[C@H](CC(C)C)C(=O)N[C@H]1C(=O)N[C@@H](CC(N)=O)C(=O)N[C@H]2C(=O)N[C@H]3C(=O)N[C@H](C(=O)N[C@H](C(=O)O)c4cc(O)cc(O)c4-c4cc3ccc4O)[C@H](O)c3ccc(c(Cl)c3)Oc3cc2cc(c3O[C@@H]2O[C@H](CO)[C@@H](O)[C@H](O)[C@H]2O[C@H]2C[C@](C)(N)[C@H](O)[C@H](C)O2)Oc2ccc(cc2Cl)[C@H]1O [vancomycin] | similar
